Entries after “also recorded” stand apart in the source; their conditions may differ.
Tests used:
SARS-CoV-2 = assay type: cell-based
[1] = test system: African swine fever virus; assay type: cell-based

## Cc1ccc(C(C)C)cc1OC(=O)C[N+](C)(C)CCCCCCCCCC[N+](C)(C)CC(=O)Oc1cc(C(C)C)ccc1C.[Cl-].[Cl-] [Compound IV, N1,N10-bis(2-(5-isopropyl-2-methylphenoxy)-2-oxoethyl)-N1,N1,N10,N10-tetramethyldecane-1,10-diaminium dichloride]
SARS-CoV-2
  inhibition of the SARS-CoV-2 reporter gene: inhibits the SARS-CoV-2 reporter gene in a dose dependent manner
[1]
  inhibiting African swine fever virus: effective at inhibiting African swine fever virus
  viral multiplication (rosetta): Cells grew well and were protected from African swine fever virus infection. No rosetta were observed; also recorded: Cells grew well, but protection against ASFV infection decreased and some rosetta became visible
A549 NSCLC cells
  effect on cell viability: does not affect cell viability

## Cc1ccc(C(C)C)c(OC(=O)C[N+](C)(C)CCCCCCCCCC[N+](C)(C)CC(=O)Oc2cc(C)ccc2C(C)C)c1.[Cl-].[Cl-] [Compound V, N1,N10-bis(2-(2-isopropyl-5-methylphenoxy)-2-oxoethyl)-N1,N1,N10,N10-tetramethyldecane-1,10-diaminium dichloride]
[1]
  inhibiting African swine fever virus: effective at inhibiting African swine fever virus
  viral multiplication (rosetta): Cells grew well and were protected from African swine fever virus infection. No rosetta were observed; also recorded: Cells grew well, but protection against ASFV infection decreased and some rosetta became visible

Reference: patent EP4232018B1 (priority 2020, dated 2022)
